The test system of series [1] is SARS-CoV-2. As to the kind of experiment: Antiviral activity against SARS-CoV-2 Wuhan infected in human A549 cells harboring ACE2-Cl33 at 0.1 MOI assessed as inhibition of viral replication pretreated with compounds for 2 hrs followed by infection for 1 hr and measured after 72 hrs post-infection by qRT-PCR analysis. The class given is functional, organism-based. Particulars: Severe acute respiratory syndrome coronavirus 2, Wuhan.

Series [2] has as its system SARS-CoV-2. As to the kind of experiment: Antiviral activity against SARS-CoV-2 Delta B1.617.2 infected in human A549 cells harboring ACE2-Cl33 at 0.1 MOI assessed as inhibition of viral replication pretreated with compounds for 2 hrs followed by infection for 1 hr and measured after 72 hrs post-infection by qRT-PCR analysis. Particulars: Severe acute respiratory syndrome coronavirus 2, Delta B1.617.2, A549. It counts as functional, organism-based. On the technique in general: In qPCR the cycle at which signal appears reflects the starting amount.

For series [3], the system named is SARS-CoV-2. In words: Antiviral activity against SARS-CoV-2 Wuhan infected in human Caco-2 cells harboring ACE2-Cl33 at 0.1 MOI assessed as inhibition of viral replication pretreated with compounds for 2 hrs followed by infection for 1 hr and measured after 72 hrs post-infection by qRT-PCR analysis. The class given is functional, organism-based. The note with it: Severe acute respiratory syndrome coronavirus 2, Wuhan.

Series [4] in a line: Selectivity index, ratio of CC50 for cytotoxicity against human Caco-2 cells harboring ACE2-CI33 assessed as cell viability by celltiter glo assay to EC50 for antiviral activity against SARS-CoV-2 Wuhan infected in human A549 cells harboring ACE2-Cl33. It counts as toxicity, cell-based. Particulars: read-out: Ratio CC50/EC50. (In ATP-based viability assays light output follows the ATP content of the culture.)

The nature of series [5]: Selectivity index, ratio of CC50 for cytotoxicity against human A549 cells harboring ACE2-CI33 assessed as cell viability by celltiter glo assay to EC50 for antiviral activity against SARS-CoV-2 Wuhan infected in human A549 cells harboring ACE2-Cl33. It counts as toxicity, cell-based. Particulars: read-out: Ratio CC50/EC50.

pEC50: −log10 of the molar value. Bounds are passed on as bounds.

As to `CN(C)CCCCCNCc1ccc(-c2cc(-c3ccc(CNCCCCCN(C)C)cc3)c3ccn(-c4ccccc4)c3c2)cc1`, the negative-log EC50 (pEC50) was 5.88 in the series with SARS-CoV-2 [1], 5.89 in the series with SARS-CoV-2 [2] and 6.02 with SARS-CoV-2 [3]. Also, the selectivity ratio in series [4] was determined as 1.88; in series [5], 2.35. In the case of `CN(C)CCCCNCc1ccc(-c2cn(-c3ccccc3)c3ncnc(-c4ccc(CNCCCCN(C)C)cc4)c23)cc1`, the selectivity ratio in series [5] is > 9.3.

Take `CN(C)CCCCNCc1ccc(-c2ccc3ccc4ccc(-c5ccc(CNCCCCN(C)C)cc5)nc4c3n2)cc1`: the pEC50 in the series with SARS-CoV-2 [1] was 5.04. In series [5], the selectivity ratio was > 1.09. On to `CN(C)CCCCNCc1ccc(-c2nc(-c3ccc(CNCCCCN(C)C)cc3)c3c(ccn3-c3ccccc3)n2)cc1`, for which, in series [5], the selectivity ratio was > 15.1. Turning to `CCC(CC)COC(=O)[C@H](C)N[P@](=O)(OC[C@H]1O[C@@](C#N)(c2ccc3c(N)ncnn23)[C@H](O)[C@@H]1O)Oc1ccccc1` [REMDESIVIR], in series [5], the selectivity ratio is > 1.18. As to `CN(C)CCCCNCc1ccc(-c2cc(-c3ccc(CNCCCCN(C)C)cc3)c3ccn(-c4ccccc4)c3c2)cc1`, the negative logarithm of the EC50 (pEC50) with SARS-CoV-2 [1] is 6.28; in the series on SARS-CoV-2 [2] it was 6.17; with SARS-CoV-2 [3], 6.10. Further, the selectivity ratio came out at 0.93 in series [4] and 1.88 in series [5].

Take `CN(C)CCCCNCc1ccc(-c2nc(-c3ccc(CNCCCCN(C)C)cc3)c3ncn(-c4ccccc4)c3n2)cc1`: the selectivity ratio in series [5] is ≥ 2.68. Take `CN(C)CCCCNCc1ccc(-c2nc(-c3ccccc3)c3ccn(-c4ccc(CNCCCCN(C)C)cc4)c3n2)cc1`: in the series on SARS-CoV-2 [1], the negative-log EC50 (pEC50) is 6.04. The selectivity ratio in series [5] was determined as 2.64. For `CN(C)CCCCNCc1ccc(-c2cc3c(ccn3-c3ccccc3)c(-c3ccc(CNCCCCN(C)C)cc3)n2)cc1`, the selectivity ratio in series [5] worked out at 2.18. The same measure, in the same setting: the value for `CN(C)CCCCCNCc1ccc(-c2cc3c(ccn3-c3ccccc3)c(-c3ccc(CNCCCCCN(C)C)cc3)n2)cc1` was 8.18; that for `CCN(CC)CCCCNCc1ccc(-c2cc3c(ccn3-c3ccccc3)c(-c3ccc(CNCCCCN(CC)CC)cc3)n2)cc1` was > 13.9. Take `CN1CCN(CCCCNCc2ccc(-c3ccc4ccc5ccc(-c6ccc(CNCCCCN7CCN(C)CC7)cc6)nc5c4n3)cc2)CC1`: the pEC50 in the series on SARS-CoV-2 [1] is < 5.00. `CN(C)CCCCNCc1ccc(-c2cc(-c3ccc(CNCCCCN(C)C)cc3)c3ccn(-c4ccccc4)c3n2)cc1`: the selectivity ratio in series [5] was found to be 7.38. Still for that read-out and setting: the same measure for `CN(C)CCCCNCc1ccc(-c2nc(-c3ccc(CNCCCCN(C)C)cc3)c3ccn(-c4ccc(CNCCCCN(C)C)cc4)c3n2)cc1`: 6.67. As to `CN(C)CCCNCc1ccc(-c2nc(-c3ccc(CNCCCN(C)C)cc3)c3ccn(-c4ccc(CNCCCN(C)C)cc4)c3n2)cc1`, the pEC50 with SARS-CoV-2 [1] was 6.36; in the series on SARS-CoV-2 [3] it was 5.81. For the same molecule, the selectivity ratio is ≥ 4.57 in series [4] and > 14.6 in series [5]. Take `CN1CCN(CCCCNCc2ccc(-c3cc(-c4ccc(CNCCCCN5CCN(C)CC5)cc4)c4ccn(-c5ccccc5)c4c3)cc2)CC1`: the selectivity ratio in series [5] turned out to be 2.74. With `CN(C)CCCNCc1ccc(-c2cn(-c3ccc(CNCCCN(C)C)cc3)c3ncnc(-c4ccc(CNCCCN(C)C)cc4)c23)cc1`, the selectivity ratio in series [5] was > 1.43. For `O=c1c(O)cc([C@H]2Oc3cc(O)cc(O)c3C[C@H]2O)cc2c([C@H]3Oc4cc(O)cc(O)c4C[C@H]3O)cc(O)c(O)c12` [THEAFLAVIN], in series [5], the selectivity ratio is > 83.3.

The term pEC50 denotes −log10 of the EC50, conventionally taken in molar units.

For the origin of these results see ChEMBL document CHEMBL6177988, “Design, synthesis, biophysical and biological evaluation of original condensed pyrrolopyrimidine and pyrrolopyridine ligands as anti-SARS-CoV-2 agents targeting G4” (Eur J Med Chem, 2025).
